Data: ChEMBL document CHEMBL4229381, “New cytokinin derivatives possess UVA and UVB photoprotective effect on human skin cells and prevent oxidative stress” (Eur J Med Chem, 2018)
The source made the active and inactive calls. The rule behind the calls is not given here.

What was measured:
[1] = Stability of the compound in pH 5 solution at 10^-4 M after 1 hr by HPLC analysis; type: physicochemical; conditions: read-out: Stability
[2] = Stability of the compound in pH 3 solution at 10^-4 M after 1 hr by HPLC analysis; type: physicochemical; conditions: read-out: Stability
[3] = Stability of the compound in pH 5 solution at 10^-4 M after 24 hrs by HPLC analysis; type: physicochemical; conditions: read-out: Stability
[4] = Cytotoxicity in human NHDF cells assessed as cell viability at 62.5 uM after 24 hrs by neutral red uptake assay relative to control; type: cell-based; conditions: read-out: Activity
[5] = Phototoxicity in human NHDF cells assessed as cell viability at 15.6 uM preincubated for 60 mins followed by 5 J/cm2 UVA irradiation and measured after 24 hrs by neutral red uptake assay relative to control; type: cell-based; conditions: read-out: Activity
[6] = Cytotoxicity in human HaCaT cells assessed as cell viability at 7.8 uM after 24 hrs by neutral red uptake assay relative to control; type: cell-based; conditions: read-out: Activity
[7] = Cytotoxicity in human HaCaT cells assessed as cell viability at 15.6 uM after 24 hrs by neutral red uptake assay relative to control; type: cell-based; conditions: read-out: Activity
[8] = Cytotoxicity in human HaCaT cells assessed as cell viability at 31.3 uM after 24 hrs by neutral red uptake assay relative to control; type: cell-based; conditions: read-out: Activity
[9] = Phototoxicity in human HaCaT cells assessed as cell viability at 3.9 uM preincubated for 60 mins followed by 7.5 J/cm2 UVA irradiation and measured after 24 hrs by neutral red uptake assay relative to control; type: cell-based; conditions: read-out: Activity
HaCaT [10] = test: Cytoprotection against phototoxicity in human HaCaT cells assessed as increase in cell viability at 3.9 uM preincubated for 60 mins followed by 10 J/cm2 UVA irradiation and measured after 24 hrs by neutral red uptake assay; type: functional, cell-based
HaCaT [11] = test: Potency index, ratio of compound effect to rosmarinic acid effect for cytoprotection against phototoxicity in human HaCaT cells assessed as increase in cell viability at 3.9 uM preincubated for 60 mins followed by 150 mJ/cm2 UVB irradiation and measured after 24 hrs by neutral red uptake assay; type: functional
Amaranthus caudatus = test: Growth promoting activity in Amaranthus caudatus var. atropurpurea seeds by measuring betacyanin at 10^-4 mol/L after 48 hrs relative to control; type: functional
Triticum aestivum = test: Anti-senescent activity in leaf of Triticum aestivum cv. Hereward seedlings by measuring chlorophyll retention at 10^-4 mol/L after 4 days relative to control; type: functional

c1csc(CNc2ncnc3c2ncn3C2CCCO2)c1 (stereo not drawn)
remaining at 1 h, 100 µM [1]: 100% | remaining at 1 h, 100 µM [2]: 94.6% | remaining at 24 h, 100 µM [3]: 94.2% | viability at 24 h, 62.5 µM [4]: 108% | viability at 24 h, 15.6 µM [5]: 101% | viability at 24 h, 7.8 µM [6]: 101% | viability at 24 h, 15.6 µM [7]: 100% | viability at 24 h, 31.3 µM [8]: 102% | viability at 24 h, 3.9 µM [9]: 123% | Activity (HaCaT [10]): Active | Ratio (HaCaT [11]): >2 | Activity (Amaranthus caudatus): 81% | Activity (Triticum aestivum): 102%
